Measurements as given in US7268159B2, “Substituted indoles” (Wyeth, priority 2003, dated 2007).

Legend:
[1] = target: T1, recombinant human plasminogen activator inhibitor-1 (PAI-1) (Homo sapiens, UniProt P05121); assay: Primary screen for the PAI-1 inhibition (residual tPA activity, Spectrozyme-tPA chromogenic substrate); type: biochemical; settings: 140 nM PAI-1, 70 nM tPA, pH 6.6; for inhibition at 10 µM: 10 μM test compound; for inhibition at 25 µM: 25 μM test compound
T1 construct: purchased Molecular Innovations, Royal Oak, Mich
T1 sequence (P05121 24-402): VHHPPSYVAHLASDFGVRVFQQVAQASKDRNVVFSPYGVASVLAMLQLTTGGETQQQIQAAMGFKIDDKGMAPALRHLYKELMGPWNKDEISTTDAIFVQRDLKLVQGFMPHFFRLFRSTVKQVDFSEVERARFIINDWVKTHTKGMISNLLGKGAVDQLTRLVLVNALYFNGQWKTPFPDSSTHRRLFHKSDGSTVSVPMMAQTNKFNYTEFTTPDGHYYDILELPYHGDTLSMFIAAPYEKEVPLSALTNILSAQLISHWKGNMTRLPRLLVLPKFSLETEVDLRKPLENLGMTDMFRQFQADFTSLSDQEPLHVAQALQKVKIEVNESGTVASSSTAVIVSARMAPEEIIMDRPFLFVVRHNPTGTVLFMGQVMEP
Method: Test compounds are dissolved in DMSO at a final concentration of 10 mM, then diluted 100× in physiologic buffer. The inhibitory assay is initiated by the addition of the test compound (1-100 μM final concentration, maximun DMSO concentration of 0.2%) in a pH 6.6 buffer containing 140 nM recombinant human plasminogen activator inhibitor-1 (PAI-1; Molecular Innovations, Royal Oak, Mich.). Following a 1 hour incubation at room temperature, 70 nM of recombinant human tissue plasminogen activator (tPA) is added, and the combination of the test compound, PAI-1 and tPA is incubated for an additional 30 minutes. Following the second incubation, Spectrozyme-tPA (American Diagnostica, Greenwich, Conn.), a chromogenic substrate for tPA, is added and absorbance read at 405 nm at 0 and 60 minutes. Relative PAI-1 inhibition is equal to the residual tPA activity in the presence of the test compound and PAI-1. Control treatments include the complete inhibition of tPA by PAI-1 at the molar ratio employed (2:1), and the absence of any effect of the test compound on tPA alone.

[2] = target: human PAI-1 (Homo sapiens, UniProt P05121); assay: Assay for determining IC50 of inhibition of PAI-1 (active PAI-1 bound to tPA-coated plate, antibody detection); type: binding; settings: human PAI-1 50 ng/ml, pH 7.5
human PAI-1, sequence (P05121 24-402): as above
Method: This assay is based upon the non-SDS dissociable interaction between tPA and active PAI-1. Assay plates are initially coated with human tPA (10 μg/ml). Test compounds of the present invention are dissolved in DMSO at 10 mM, then diluted with physiologic buffer (pH 7.5) to a final concentration of 1-50 μM. Test compounds are incubated with human PAI-1 (50 ng/ml) for 15 minutes at room temperature. The tPA-coated plate is washed with a solution of 0.05% Tween 20 and 0.1% BSA, then the plate is blocked with a solution of 3% BSA. An aliquot of the substituted indole/PAI-1 solution is then added to the tPA-coated plate, incubated at room temperature for 1 hour, and washed. Active PAI-1 bound to the plate is assessed by adding an aliquot of a 1:1000 dilution of the 33B8 monoclonal antibody against human PAI-1, and incubating the plate at room temperature for 1 hour (Molecular Innovations, Royal Oak, Mich.) The plate is again washed, and a solution of goat anti-mouse IgG-alkaline phosphatase conjugate is added at a 1:50,000 dilution in goat serum. […] The plate is incubated 45 minutes at room temperature, and color development is determined at OD405 nm. The quantitation of active PAI-1 bound to tPA at varying concentrations of the test compound is used to determine the IC50. Results are analyzed using a logarithmic best-fit equation. […]

Row | Structure (SMILES) | inhibition at 10 µM [1] [%] | inhibition at 25 µM [1] [%] | IC50 [2] [µM]
1 | O=C(O)c1ccc2ccn(Cc3ccc(NS(=O)(=O)c4ccc(-c5ccccc5)cc4)cc3)c2c1 [Compound 10, 1-{4-[(1,1′-biphenyl-4-ylsulfonyl)amino]benzyl}-1H-indole-6-carboxylic acid] | 26 | 30 | –
2 | O=C(O)c1cc2ccccc2n1Cc1ccc(NS(=O)(=O)c2ccc(-c3ccccc3)cc2)cc1 [Compound 3, 1-{4-[(1,1′-biphenyl-4-ylsulfonyl)amino]benzyl}-1H-indole-2-carboxylic acid] | – | 66 | –
3 | O=C(O)c1c(-c2ccccc2)c2ccccc2n1Cc1ccc(Nc2ccccc2)cc1 [Compound 16, 1-(4-anilinobenzyl)-3-phenyl-1H-indole-2-carboxylic acid] | 26 | 32 | –
4 | O=C(O)c1cn(Cc2ccc(NS(=O)(=O)c3ccc(-c4ccccc4)cc3)cc2)c2ccccc12 [Compound 7, 1-{4-[(1,1′-biphenyl-4-ylsulfonyl)amino]benzyl}-1H-indole-3-carboxylic acid] | 25 | 27 | –
5 | CC(C)(C)c1ccc(S(=O)(=O)Nc2ccc(Cn3ccc4c(C(=O)O)cccc43)cc2)cc1 [Compound 8, 1-(4-{[(4-tert-butylphenyl)sulfonyl]amino}benzyl)-1H-indole-4-carboxylic acid] | 27 | 47 | –
6 | CS(=O)(=O)Nc1ccc(Cn2c(C(=O)O)c(-c3ccccc3)c3ccccc32)cc1 [Compound 12, 1-{4-[(methylsulfonyl)amino]benzyl}-3-phenyl-1H-indole-2-carboxylic acid] | 42 | 49 | –
7 | O=C(O)c1cccc2c1ccn2Cc1ccc(NS(=O)(=O)c2ccc(-c3ccccc3)cc2)cc1 [Compound 9, 1-{4-[(1,1′-biphenyl-4-ylsulfonyl)amino]benzyl}-1H-indole-4-carboxylic acid] | 26 | 35 | –
8 | O=C(O)c1c(-c2cccs2)c2ccccc2n1Cc1ccc(Nc2ccccc2)cc1 [Compound 17, 1-(4-anilinobenzyl)-3-thien-2-yl-1H-indole-2-carboxylic acid] | 25 | 35 | –
9 | CC(C)(C)c1ccc(S(=O)(=O)Nc2ccc(Cn3cc(C(=O)O)c4ccccc43)cc2)cc1 [Compound 6, 1-(4-{[(4-tert-butylphenyl)sulfonyl]amino}benzyl)-1H-indole-3-carboxylic acid] | 19 | 28 | –
10 | CC(C)(C)c1ccc(S(=O)(=O)Nc2ccc(Cn3ccc4cc(C(=O)O)ccc43)cc2)cc1 [Compound 4, 1-(4-{[(4-tert-butylphenyl)sulfonyl]amino}benzyl)-1H-indole-5-carboxylic acid] | – | 27 | –

Other lines, results leading:

Row | inhibition at 10 µM [1] [%] | inhibition at 25 µM [1] [%] | IC50 [2] [µM] | Structure (SMILES)
11 | – | 22 | – | O=C(O)c1ccc2c(ccn2Cc2ccc(NS(=O)(=O)c3ccc(-c4ccccc4)cc3)cc2)c1 [Compound 5, 1-{4-[(1,1′-biphenyl-4-ylsulfonyl)amino]benzyl}-1H-indole-5-carboxylic acid]
12 | 15 | 35 | – | O=C(O)c1cc2ccccc2n1-c1ccc(-n2cccc2)cc1 [Compound 2, 1-[4-(1H-pyrrol-1-yl)phenyl]-1H-indole-2-carboxylic acid]
13 | 50 | 79 | – | O=C(O)c1c(-c2cccs2)c2ccccc2n1Cc1ccc(NS(=O)(=O)c2ccccc2)cc1 [Compound 13, 1-{4-[(phenylsulfonyl)amino]benzyl}-3-thien-2-yl-1H-indole-2-carboxylic acid]
14 | 39 | 40 | – | O=C(O)c1cc2ccccc2n1-c1ccc(NS(=O)(=O)c2ccc(OC(F)(F)F)cc2)cc1 [Compound 1, 1-[4-({[4-(trifluoromethoxy)phenyl]sulfonyl}amino)phenyl]-1H-indole-2-carboxylic acid]
15 | 51 | 71 | – | O=C(O)c1c(-c2ccccc2)c2ccccc2n1Cc1ccc(NS(=O)(=O)c2ccccc2)cc1 [Compound 11, 3-phenyl-1-{4-[(phenylsulfonyl)amino]benzyl}-1H-indole-2-carboxylic acid]
16 | 53 | 69 | 2.51 | Cc1ccc(C)n1-c1ccc(Cn2c(C(=O)O)c(-c3ccccc3)c3ccccc32)cc1 [Compound 15, 1-[4-(2,5-dimethyl-1H-pyrrol-1-yl)benzyl]-3-phenyl-1H-indole-2-carboxylic acid]
17 | 45 | 53 | – | CS(=O)(=O)Nc1ccc(Cn2c(C(=O)O)c(-c3cccs3)c3ccccc32)cc1 [Compound 14, 1-{4-[(methylsulfonyl)amino]benzyl}-3-thien-2-yl-1H-indole-2-carboxylic acid]
